Data as given in patent EP0687673A1, “Oxazole derivatives as antitumoral agents” (PHARMA MAR, S.A., priority 1994, dated 1995).
≈ marks a conversion by molar mass, not a printed value.

Columns and labels:
Assay type in all cases: cell-based
[1] = system: MEL-28 (monolayer culture of a human melanoma); assay: Antitumor screening, growth inhibition of MEL-28 cells (Crystal Violet staining); conditions: SK-MEL-28, 72 h, three days of incubation at 37°C, approximate IC₅₀ vs control wells, duplicate
Procedure: (§1) Cells were maintained in logarithmic phase of growth in Eagle's Minimum Essential Medium, with Earle's Balanced Salts, with 2.0 mM L-Glutamine, with non-essential Amino Acids, without Sodium Bicarbonate (EMEM/NEAA); supplemented with 10% Fetal Calf Serum (FCS), 10⁻² M Sodium Bicarbonate and 0,1 g/1 Penicillin-G + Streptomycin Sulfate.
(§2) A simple screening procedure was carried out to determine and compare the antitumor activity of these compounds, using an adapted form of the method described by Bergeron et al., Biochem. Biophys. Res. Comm. (1984) 121 848 [Reference 6]. The antitumor cell employed was P-388 (suspension culture of a lymphoid neoplasm from DBA/2 mouse), A-549 (monolayer culture of a human lung carcinoma), HT-29 (monolayer culture of a human colon carcinoma) and MEL-28 (monolayer culture of a human melanoma).
(§3) A-549, HT-29 and MEL-28 were seeded into 16 mm wells at 2 x 10⁴ cells per well in […] of MEM 10FCS containing the indicated concentration of drug. A separate set of cultures without drug was seeded as control growth to ensure that cells remained in exponential phase of growth. All determinations were carried out in duplicate. After three days of incubation at 37°C, 10% CO₂ in a 98% humid atmosphere, the wells were stained with 0.1% Crystal Violet. An approximate IC₅₀ was determined by comparing the growth in wells with drug to the growth in control wells.

[2] = system: A-549 (monolayer culture of a human lung carcinoma); assay: Antitumor screening, growth inhibition of A-549 cells (Crystal Violet staining); conditions: A549, 72 h, three days of incubation at 37°C, approximate IC₅₀ vs control wells, duplicate
Procedure: as §1, §2, §3

[3] = system: HT-29 (monolayer culture of a human colon carcinoma); assay: Antitumor screening, growth inhibition of HT-29 cells (Crystal Violet staining); conditions: 72 h, three days of incubation at 37°C, approximate IC₅₀ vs control wells, duplicate
Procedure: as §1, §2, §3

[4] = system: P-388 (suspension culture of a lymphoid neoplasm from DBA/2 mouse); assay: Antitumor screening, growth inhibition of P-388 cells; conditions: P388, 72 h, three days of incubation at 37°C, approximate IC₅₀ vs control wells, duplicate
Procedure: as §1, §2
P-388 cell were seeded into 16 mm wells at 1 x 10⁴ cells per well in 1 ml aliquots of MEM 5FCS containing the indicated concentration of drug. A separate set of cultures without drug was seeded as control growth to ensure that cells remained in exponential phase of growth. All determinations were carried out in duplicate. After three days of incubation at 37°C, 10% CO₂ in a 98% humid atmosphere, an approximate IC₅₀ was determined by comparing the growth in wells with drug to the growth in control wells.

SMILES | IC50 [1] | IC50 [2] | IC50 [3] | IC50 [4]
CC(O)C(O)C(O)CC(O)c1coc(Cc2cnco2)n1 (stereo not drawn) | 5 µg/mL (≈ 16.8 µM) | 5 µg/mL (≈ 16.8 µM) | 5 µg/mL (≈ 16.8 µM) | > 20 µg/mL
CCCCCCCCCCCCCCCCCCCCC(=O)OC(CC(O)C(O)C(C)O)c1coc(Cc2cnco2)n1 (stereo not drawn) [Digonazole (6), Digonazole] |  | 0.2 µg/mL (≈ 0.33 µM) | 0.2 µg/mL (≈ 0.33 µM) | 2.5 µg/mL (≈ 4.12 µM)
CCCCCCCCCCCCCCCCCCCCC(=O)OC(CC(OC(C)=O)C(OC(C)=O)C(C)OC(C)=O)c1coc(Cc2cnco2)n1 (stereo not drawn) [Digonazole triacetate (8), Digonazole triacetate] | 0.01 µg/mL | 0.01 µg/mL | 0.02 µg/mL | 0.2 µg/mL
CC(=O)OC(CC(OC(C)=O)C(OC(C)=O)C(C)OC(C)=O)c1coc(Cc2cnco2)n1 (stereo not drawn) [Tetraacetoxyhexyl dioxazole (10), Tetraacetoxyhexyl dioxazole] | 10 µg/mL (≈ 21.4 µM) | 1 µg/mL (≈ 2.14 µM) | 0.5 µg/mL (≈ 1.07 µM) | 10 µg/mL (≈ 21.4 µM)
